Numbering of substitutions follows the chain as printed. Read-outs that look alike come from different tables or passages of the source.
Legend:
Assay type in all cases: cell-based
BGT1 E52A + Q299L = molecular target: T1, BGT1 E52A + Q299L (Homo sapiens, UniProt P48065, E52A/Q299L); assay: [3H]GABA uptake assay, transient expression in tsA201 cells; conditions: for IC50: BGT1 E52A + Q299L, tsA201 cells (2: only n = 2)
T1 construct: expressed in transfected cells; host or cells: tsA201 (transformed HEK293), transient
T1 sequence (P48065 1-614 E52A/Q299L): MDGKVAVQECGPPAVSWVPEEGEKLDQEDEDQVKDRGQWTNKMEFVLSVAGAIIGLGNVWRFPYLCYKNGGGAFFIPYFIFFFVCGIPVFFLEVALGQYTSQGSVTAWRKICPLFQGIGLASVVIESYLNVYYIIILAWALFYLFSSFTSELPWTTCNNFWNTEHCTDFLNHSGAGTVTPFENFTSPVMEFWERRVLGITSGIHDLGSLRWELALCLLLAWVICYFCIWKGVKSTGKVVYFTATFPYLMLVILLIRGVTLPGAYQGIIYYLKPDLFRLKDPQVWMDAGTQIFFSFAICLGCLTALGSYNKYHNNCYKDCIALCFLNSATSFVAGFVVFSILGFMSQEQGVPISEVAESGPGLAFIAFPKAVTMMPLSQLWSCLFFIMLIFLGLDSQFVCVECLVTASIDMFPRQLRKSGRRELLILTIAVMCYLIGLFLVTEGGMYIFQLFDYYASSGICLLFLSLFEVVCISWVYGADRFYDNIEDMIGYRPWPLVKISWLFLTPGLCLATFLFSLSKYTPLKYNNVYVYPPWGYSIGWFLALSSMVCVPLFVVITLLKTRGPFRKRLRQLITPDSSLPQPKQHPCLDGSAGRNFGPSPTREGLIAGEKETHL
Experimental: (§1) The residue Q299 in human BGT1 corresponds to leucine in all other GATs (human, rat, mouse), while E52 corresponds to tyrosine in GAT1 (human, rat, mouse) but is conserved among GAT2, GAT3 and BGT1 (human, rat, mouse) (Figure 6A) ([Kickinger et al., 2019]).
(§2) The tsA201 cell line (a transformed HEK293 cell line), the Flp-In CHO cell lines stably expressing human (h) GATs and the HEK293 cell line stably expressing human α1β2γ2 GABAA receptors have been described previously and were cultured accordingly ([Al-Khawaja et al., 2014]; [Falk-Petersen et al., 2020]). The tsA201 cell line used for transient expression of hGATs was transfected with DNA constructs (8 μg per 10 cm plate) using 40 μL PolyFect transfection reagent according to the manufacturer’s protocol (Qiagen).
(§3) Briefly, cells were seeded in white 96-well plates (White Opaque Tissue Culture (TC) plated 96-well Microplate) pre-coated with PDL. Medium was removed on the following day and cells washed with 100 µL/well assay buffer (HBSS supplemented with 20 mM HEPES, 1 mM CaCl2 and 1 mM MgCl2, pH 7.4). […] The cells were washed 3 times with 100 µL/well ice-cold assay buffer, 150 µL/well MicroScint™20 was subsequently added before the plate was shaken for at least 1 h. The plate was counted in a Packard TopCounter microplate scintillation counter (PerkinElmer) for 3 min per well. […] Data presented is the pooled data of at least three independent experiments with three technical replicates if not stated otherwise in figure legends. Concentration–response curves were fitted by non-linear regression to the sigmoidal concentration-response model with GraphPad Prism (version 9.0.0, GraphPad Software, San Diego, CA, United States) as described ([Lie et al., 2020]).

BGT1 E52A = molecular target: T2, BGT1 E52A (Homo sapiens, UniProt P48065, E52A); assay: as above; conditions: for IC50: BGT1 E52A; for Increase in activity compared to wildtype: BGT1 E52A vs BGT1 wt
T2 construct: expressed in transfected cells; host or cells: tsA201 (transformed HEK293), transient
T2 sequence (P48065 1-614 E52A): T1 sequence (P48065 1-614 E52A/Q299L) with L299Q
Experimental: as §1, §2, §3

BGT1 = molecular target: T3, BGT1 (Homo sapiens, UniProt P48065); assay: FLIPR membrane potential (FMP) assay, CHO cells stably expressing BGT1; conditions: for Kb: Gaddum-Schild analysis; for Inhibitor activity: in the presence of GABA EC50 concentration ([…] µM); for Substrate activity (translocation by BGT1): tested as substrates, without GABA
T3 construct: expressed in transfected cells
T3 sequence (P48065 1-614): T1 sequence (P48065 1-614 E52A/Q299L) with A52E, L299Q

**Q.** Which IC50 (BGT1 E52A + Q299L; read-out: IC50) does the source give for `N[C@@]12CC[C@H](C(=O)O)[C@@H]1C2` [bicyclo-GABA, (1S,2S,5R)-5-aminobicyclo[3.1.0]hexane-2-carboxylic acid] here?
**A.** 41000 nM

**Q.** And the “Decrease in inhibitory activity compared to wildtype” value (BGT1 E52A + Q299L; BGT1 Q299L + E52A vs BGT1 wt)?
**A.** 27 times

**Q.** What about the IC50 (BGT1 E52A) of the same compound?
**A.** ~40 nM

**Q.** And the “Increase in activity compared to wildtype” value (BGT1 E52A)?
**A.** 38 times

**Q.** And the IC50 (BGT1 E52A; tsA201 cells)?
**A.** 40 nM

**Q.** What about the Kb (BGT1; n = 4, read-out: KB) of the same compound?
**A.** 470 nM

**Q.** And the Kb (BGT1; read-out: pKB (converted))?
**A.** 398 nM

**Q.** And the “Preference for BGT1 over α1β2γ2 GABAA receptors” value (BGT1; according to the FMP data)?
**A.** 13 times

**Q.** And the “Schild slope (Gaddum-Schild analysis)” value (BGT1; co-applied with increasing concentrations of GABA, n = 4)?
**A.** 1.02

**Q.** What about the Inhibitor activity (BGT1) of the same compound?
**A.** behaved as inhibitors

**Q.** What about the “Substrate activity (translocation by BGT1)” value (BGT1) of the same compound?
**A.** no increase in fluorescence signals

**Q.** With `CN[C@@]12CC[C@H](C(=O)O)[C@@H]1C2` [compound 2] as the compound, how does the IC50 (BGT1 E52A + Q299L; read-out: IC50) read?
**A.** 44000 nM

**Q.** What about the IC50 (BGT1 E52A + Q299L; read-out: pIC50 ± S.E.M. (converted)) of the same compound?
**A.** 31600 nM

**Q.** And the “Increase in activity compared to wildtype” value (BGT1 E52A)?
**A.** 82 times

**Q.** And the IC50 (BGT1 E52A; tsA201 cells)?
**A.** 120 nM

**Q.** And the Inhibitor activity (BGT1)?
**A.** behaved as inhibitors

**Q.** And the “Substrate activity (translocation by BGT1)” value (BGT1)?
**A.** no increase in fluorescence signals
